Read-outs that look alike come from different tables or passages of the source.
How the values were obtained:
[1] = test system: Hedgehog protein signaling pathway; experiment: Inhibition of SAG-induced alkaline phosphatase activity (differentiation) in C3H10T1/2 cells; assay type: cell-based; conditions: read-out: IC50 (concentration which inhibits 50% of the alkaline phosphatase activity)
Procedure: The compounds of formula (I) to be tested were dissolved in dimethyl sulfoxide until a concentration of 10 mM was obtained, and then stored at a temperature of −20° C. until use.
The pluripotent fibroblast cell line C3H10T1/2 was cultured under the conditions recommended by the American Type Culture Collection (ATCC).
Activation with SAG causes the cell line to differentiate and allows the cells to express alkaline phosphatase. It was thus possible to measure the activity of the Hedgehog protein signaling pathway by measuring the alkaline phosphatase activity.
The C3H10T1/2 cells were seeded onto 96-well plates at a density of 5×10^3 cells per well, 24 hours before the addition of the test compounds at a concentration ranging from 1 nM to 30 μM and in the presence of 0.1 μM of SAG, using DMEM (Dulbecco's Modified Eagle's Medium) with 10% fetal calf serum, as culture medium. The tests were carried out in quadruplicate. The plates were then incubated for 5 to 6 days at a temperature of 37° C. under an atmosphere of 5% CO2. The cells were then washed in a cold phosphate buffer (Phosphate Buffered Saline: PBS), and then lysed by sonication at 4° C. in 50 μL of solution containing 0.9% of NaCl and 0.2% of Triton X-100.

Shh pathway = experiment: In vivo inhibition of Shh-induced Patched mRNA in the subventricular zone of adult mouse brain (in situ hybridization); conditions: adult mice, 4.5 pmol injected with recombinant Shh protein (290 ng) into the lateral ventricle, in situ hybridization 48 hours after injection
Procedure: Adult male Swiss mice (8 weeks old, 35 g) were anesthetized with a mixture of ketamine (Mérial®, Lyon, France) (0.1 mg/g) and xylazine (Bayer®, Puteaux, France) (0.01 mg/g) by intraperitoneal (i. p.) injection. The recombinant Shh protein (290 ng in a buffer solution containing 150 mM of sodium chloride NaCl and 0.5 mM of dithitheritol DTT), was diluted in 4.5 μl of a solution of 2-hydroxypropyl-beta-cyclodextrin (HBC) at 45% in PBS optionally containing 4.5 pmol of Cur61414 or of compound 24. This mixture was injected stereotaxically into the right lateral ventricle (LV) (n=5 animals for each group), at the following coordinates given relative to the Bregma axis: anteroposterior+0.2 mm; lateral+0.8 mm; dorsoventral−2.5 mm. The reference atlas for the stereotaxic coordinates is: The mouse brain in stereotaxic coordinates, Georges Paxinos, Keith B. J., Franklin, 2nd edition, 2001, Academic Press (San Diego, United States).
The detection of the Patched messenger RNA by in situ hybridization was carried out 48 hours after the injection, as described by Traiffort et al., Eur. J. Neursci, 1999, 11, 3199-3214.

[2] = biological target: T1, mouse Smoothened receptor (Mus musculus, UniProt P56726); experiment: Competition with bodipycyclopamine binding on HEK293 cells transfected with mouse Smoothened; conditions: 5 nM bodipycyclopamine, 2 hours at 37° C., read-out: IC50 (concentration which inhibits 50% of the bodipycyclopamine binding)
T1 construct: expressed in transfected cells; host or cells: HEK293 cells, transiently transfected with Fugene6
T1 sequence (P56726 33-793): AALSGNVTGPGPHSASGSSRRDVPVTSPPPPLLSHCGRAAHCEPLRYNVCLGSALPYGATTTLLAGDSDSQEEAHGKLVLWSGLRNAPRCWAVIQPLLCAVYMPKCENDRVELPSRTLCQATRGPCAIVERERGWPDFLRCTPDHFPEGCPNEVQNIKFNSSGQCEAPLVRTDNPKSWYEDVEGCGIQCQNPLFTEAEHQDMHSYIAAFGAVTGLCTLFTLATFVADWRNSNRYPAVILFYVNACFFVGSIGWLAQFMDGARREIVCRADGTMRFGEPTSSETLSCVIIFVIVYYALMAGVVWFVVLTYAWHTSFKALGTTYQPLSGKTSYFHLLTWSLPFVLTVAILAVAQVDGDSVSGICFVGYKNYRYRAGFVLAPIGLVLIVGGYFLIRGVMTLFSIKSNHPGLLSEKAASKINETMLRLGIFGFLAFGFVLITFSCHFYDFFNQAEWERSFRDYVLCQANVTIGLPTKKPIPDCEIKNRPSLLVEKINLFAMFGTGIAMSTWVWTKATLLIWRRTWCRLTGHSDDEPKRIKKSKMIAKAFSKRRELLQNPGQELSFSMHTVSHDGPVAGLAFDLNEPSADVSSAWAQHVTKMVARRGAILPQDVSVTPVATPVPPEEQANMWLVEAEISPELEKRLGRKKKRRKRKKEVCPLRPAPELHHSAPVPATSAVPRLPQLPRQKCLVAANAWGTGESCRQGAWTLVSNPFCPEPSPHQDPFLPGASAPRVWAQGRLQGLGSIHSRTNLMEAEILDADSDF
Procedure: HEK293 cells are seeded at 70 000 cells per well onto glass cover slips treated with poly-D-lysine in a 24-well plate, and transfected the following day with 0.25 μg of plasmid encoding the mouse Smoothened protein using 0.7 μl of Fugene6 (Roche biochemicals) according to the protocol described by the supplier (i.e. 0.7 μl of Fugene 6 are added to 24 μl of DMEM without any additive, in each well. The mixture is then incubated for 5 minutes at ambient temperature, 0.25 μg of plasmid DNA are added, and then the whole is mixed and incubated for 20 to 30 minutes at ambient temperature. 25 μl of the mixture thus prepared are then added directly to the cell culture medium, in each well of the plate containing 24 wells). After 48 hours, the culture medium is removed, and the cells are rinsed once with 1 ml of a PBS (Phosphate Buffered Saline) phosphate buffer solution, and then fixed for 20 minutes in the presence of an ice-cold solution of paraformaldehyde (PFA) at 4%, and 0.12 M glucose in a PBS phosphate buffer solution. The cells are then rinsed once and washed twice for 5 minutes with 1 ml of a PBS phosphate buffer solution containing 0.5% of fetal calf serum (PBS-FCS). […] The cells are then washed twice for 5 minutes with 1 ml of PBS-FCS, then brought into contact with 1 ml of a 1×PBS phosphate buffer solution. Finally, the cover slips are mounted on a glass slide in the presence of Vectashield containing DAPI (4′,6′-diamidino-2-phenylindole) so as to label the cell nuclei (Vector). […] The fluorescence intensity is then analyzed using the Simple PCI 6.2 software (Hamamatsu Corporation), and then related to the surface area of the nuclei present on the photograph.

cells = conditions: Borzillo et al., Curr. Top Med. Chem., 2005; cited from earlier work
[3] = Mus musculus, C3H 10T1/2, after induction with 0.1 μM SAG

Row | IC50 [1, 3] [nM] | Compound | also measured
1 | 30 to 300 | COc1cc(C(=O)NC(=N)Nc2cccc(-c3cc4ccccc4[nH]3)c2)cc(OC)c1OC [Compound 19, N—(N-(3-(1H-indol-2-yl)phenyl)carbamimidoyl)-3,4,5-trimethoxybenzamide] | melting point: 149 °C
2 | 300 to 1000 | COc1cc(C(=O)NC(=N)Nc2ccc(Cl)c(NC(=O)c3ccccc3)c2)cc(OC)c1OC [Compound 16, N—(N-(3-benzamido-4-chlorophenyl)carbamimidoyl)-3,4,5-trimethoxybenzamide] | 
3 | 3 to 30 | COc1cc(C(=O)NC(=N)Nc2ccc(C)c(NC(=O)c3ccc(-c4ccccc4)cc3)c2)cc(OC)c1OC [Compound 24, N-(2-methyl-5-(3-(3,4,5-trimethoxybenzoyl)guanidino)phenyl)-biphenyl-4-carboxamide] | Induction of the Ptc gene messenger RNA in the subventricular zone (Shh pathway): disappears; IC50 [2]: 3 to 30 nM
4 | 300 to 1000 | COc1cccc(CN(C(=O)CC(C)(C)C)C2CC(C(=O)N3CCNCC3)N(Cc3ccc4c(c3)OCO4)C2)c1 (stereo not shown) [Cur61414, reference compound] | Induction of the Ptc gene messenger RNA in the subventricular zone (Shh pathway): disappears; IC50 [2]: 30 to 300 nM
5 | 30 to 300 | COc1cc(C(=O)NC(=N)Nc2ccc(Cl)c(NC(=O)c3ccc(-c4ccccc4)cc3)c2)cc(OC)c1OC [Compound 17, N-(2-chloro-5-(3-(3,4,5-trimethoxybenzoyl)guanidino)phenyl)-biphenyl-4-carboxamide] | 
6 | 300 to 1000 | COc1ccc(NC(=O)c2cc(NC(=N)NC(=O)c3cc(OC)c(OC)c(OC)c3)ccc2Cl)cc1 [Compound 20, N—(N-(4-chloro-3-(4-methoxyphenylcarbamoyl)phenyl)-carbamimidoyl)-3,4,5-trimethoxybenzamide] | melting point: 105 °C
7 | 3 to 30 | COc1cc(C(=O)NC(=N)Nc2ccc(C)c(NC(=O)c3ccc(-c4ccc(F)cc4)cc3)c2)cc(OC)c1OC [Compound 30, 4′-fluoro-N-(2-methyl-5-(3-(3,4,5-trimethoxybenzoyl)-guanidino)phenyl)biphenyl-4-carboxamide] | 
8 | 300 to 1000 | COc1cc(C(=O)NC(=N)Nc2cccc(NC(=O)c3ccccc3)c2)cc(OC)c1OC [Compound 15, N—(N-(3-benzamidophenyl)carbamimidoyl)-3,4,5-trimethoxybenzamide] | 
9 | 300 to 1000 | COc1cc(C(=O)NC(=N)Nc2ccc(Cl)c(C(=O)Nc3ccccc3)c2)cc(OC)c1OC [Compound 21, N—(N-(4-chloro-3-(phenylcarbamoyl)phenyl)carbamimidoyl)-3,4,5-trimethoxybenzamide] | 
10 | 30 to 300 | COc1cc(C(=O)NC(=N)Nc2ccc(C)c(C(=O)Nc3ccccc3)c2)cc(OC)c1OC [Compound 22, 3,4,5-trimethoxy-N—(N-(4-methyl-3-(phenylcarbamoyl)phenyl)-carbamimidoyl)benzamide] | 
11 | 30 to 300 | COc1cc(C(=O)NC(=N)Nc2cccc(NC(=O)c3ccc(N4CCOCC4)cc3)c2)cc(OC)c1OC [Compound 18, 3,4,5-trimethoxy-N—(N-(3-(4-morpholinobenzamido)phenyl)-carbamimidoyl)benzamide] | 
12 | 3 to 30 | COc1cc(C(=O)NC(=N)Nc2cccc(NC(=O)c3ccc(-c4ccc(F)cc4)cc3)c2)cc(OC)c1OC [Compound 23, 4′-fluoro-N-(3-(3-(3,4,5-trimethoxybenzoyl)guanidino)phenyl)-biphenyl-4-carboxamide] | IC50 [2]: 3 to 30 nM
13 |  | cyclopamine [reference compound] | IC50 ([1]; after induction with 0.1 μM SAG): 300 to 1000 nM; concentrations cytotoxic for cells (cells): above 10 μM
14 |  | COc1cc(C(=O)NC(=N)Nc2ccc(Cl)c(NC(=O)Nc3ccccc3)c2)cc(OC)c1OC [Compound 38, N—(N-(4-chloro-3-(3-phenylureido)phenyl)carbamimidoyl)-3,4,5-trimethoxybenzamide] | melting point: 127 °C
15 | 3 to 30 | CS(=O)(=O)c1ccc(C(=O)Nc2ccc(Cl)c(-c3ccccn3)c2)c(Cl)c1 [GDC-0449, reference compound] | 
16 | 300 to 1000 | COc1cc(C(=O)NC(=N)Nc2cccc(-n3ccc4ccccc43)c2)cc(OC)c1OC [Compound 29, N—(N-(3-(1H-indol-1-yl)phenyl)carbamimidoyl)-3,4,5-trimethoxybenzamide] | 
17 | 300 to 1000 | COc1cc(C(=O)NC(=N)Nc2cccc(-c3cn4ccsc4n3)c2)cc(OC)c1OC [Compound 28] | 

Reference: US8889678B2, “Acyl guanidine derivatives modulating the hedgehog protein signaling pathway” (Centre National de la Recherche Scientifique, priority 2009, dated 2014)
